Reference: article PMC3375280 (PLoS ONE, 2012)
Where a chain is given by its changes, count along the chain named.

Key:
[1] = target: T1, AT1 C76A/V116C/C289A mutant receptor (Rattus norvegicus, UniProt P25095, C289A/C76A/V116C); experiment: substituted cysteine accessibility mapping (SCAM), C76A/V116C/C289A; assay type: binding; design: key: Less and More indicate that the AT1 receptor is less or more accessible to the ligand pocket, respectively; Less and More indicate that the AT1 receptor is less or more accessible to the ligand pocket, respectively; No change; conditions: 1 µM ARB, […] MTSEA+, COS1 membranes
T1 construct: expressed in transfected cells; host or cells: COS1 cells (membranes)
T1 sequence (P25095 1-359 C76A/V116C/C289A): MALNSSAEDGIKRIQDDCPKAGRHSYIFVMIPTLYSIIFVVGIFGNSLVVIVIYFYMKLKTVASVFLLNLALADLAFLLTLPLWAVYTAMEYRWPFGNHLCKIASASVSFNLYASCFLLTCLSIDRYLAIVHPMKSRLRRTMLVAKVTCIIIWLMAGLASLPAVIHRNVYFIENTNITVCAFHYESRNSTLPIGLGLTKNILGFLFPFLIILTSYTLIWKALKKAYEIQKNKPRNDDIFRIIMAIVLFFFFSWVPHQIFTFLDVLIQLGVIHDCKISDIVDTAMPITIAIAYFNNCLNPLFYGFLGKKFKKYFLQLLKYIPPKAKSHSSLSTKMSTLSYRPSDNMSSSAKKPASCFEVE
Description: (§1) As we reported previously, the percentage (%) inhibition of ^125I-[Sar^1, Ile^8] AngII binding by methanethiosulphonate ethyl-ammonium (MTSEA^+) reagent was approximately 30% on AT1 receptor, since Cys^76 in TM2 was accessible to water within the ligand pocket. In addition, mechanical stretching increased the accessibility of Cys^289 by inducing a change in the conformation of TM7 [22]. To differentiate between single and multiple movements of one or more native cysteines, we created TM3 residues that were substituted with cysteine one at a time from […] to Phe^117 using the C76A/C289A mutant genetic background and evaluated each triple mutant for MTSEA sensitivity.
(§2) Figure 3 Changes in cysteine accessibility in COS1 cells expressing C76A/C289A mutant receptors in which the transmenbrane 3 residues from Ala^106 to Phe^117, except for position 113, were successively replaced by cysteine. 1 µM of ARBs, n=4–9, *p<0.05 vs. no treatment. #p<0.05 vs. C76A/C289A.
The SCAM method has been used to probe relative changes in the conformation of constitutively active AT1 receptor [20]–[22] and other GPCRs, [30] by validating the presence of Cys residues within the ligand pocket. […]

[2] = target: T2, AT1 C76A/S109C/C289A mutant receptor (Rattus norvegicus, UniProt P25095, C289A/C76A/S109C); experiment: substituted cysteine accessibility mapping (SCAM), C76A/S109C/C289A; assay type: binding; design: key: Less and More indicate that the AT1 receptor is less or more accessible to the ligand pocket, respectively; Less and More indicate that the AT1 receptor is less or more accessible to the ligand pocket, respectively; No change; conditions: 1 µM ARB, […] MTSEA+, COS1 membranes
T2 construct: expressed in transfected cells; host or cells: COS1
T2 sequence (P25095 1-359 C76A/S109C/C289A): T1 sequence (P25095 1-359 C76A/V116C/C289A) with S109C, C116V
Description: as §1, §2
The SCAM method has been used to probe relative changes in the conformation of constitutively active AT1 receptor [20]–[22] and other GPCRs, [30] by validating the presence of Cys residues within the ligand pocket. We used a highly reactive, sulfhydryl-specific reaction with methanethiosulfonyl ethyl-ammonium (MTSEA^+), which reacts a billion times faster with water-exposed and ionized Cys than with lipid-exposed and un-ionized Cys. In this reaction, a positively charged sulfonylmethylammonium group is added to a water-exposed Cys. Aliquots of cell membranes are incubated with or without ARBs for 20 min in phosphate buffer at room temperature. The membranes are then diluted with same buffer and centrifuged. After washout the cell membranes, the membranes are incubated with 2.5 mM MTSEA^+ at room temperature for 2 min in HEPES buffer (pH7.4). The Membranes are then diluted with same buffer to stop the reaction and centrifuged. One hundred µl aliquots were used to assay for ^125I-[Sar^1,Ile^8]Ang II binding. […]

[3] = target: T3, wild-type (WT) AT1 receptor (Rattus norvegicus, UniProt P25095); design: expressed in transfected cells; host or cells: COS1 cells; conditions: previously reported; cited from earlier work
T3 sequence (P25095 1-359): T1 sequence (P25095 1-359 C76A/V116C/C289A) with A76C, C116V, A289C

[4] = target: T4, AT1 wild-type (WT) receptor (Rattus norvegicus, UniProt P25095); experiment: 125I-[Sar1,Ile8]AngII competition binding, wild-type receptor; conditions: for Kd / Kd ratio relative to olmesartan (in parentheses): WT; for Kd: COS1 cell membranes, 100 pM 125I-[Sar1,Ile8]AngII, 1 h 22°C, read-out: Binding affinity (Kd); for Kd ratio relative to olmesartan (in parentheses): compound Kd / olmesartan Kd
T4 construct: expressed in transfected cells; host or cells: COS1
T4 sequence (P25095 1-359): T1 sequence (P25095 1-359 C76A/V116C/C289A) with A76C, C116V, A289C
Protocol: The Kd and Bmax values of receptor binding were determined by ^125I-[Sar^1, Ile^8] […] Membranes expressing the WT or mutant AT1 receptors were incubated with 100 pM ^125I-[Sar^1, Ile^8] […] The binding reaction was terminated by filtering the incubation mixture through Whatman GF/C glass filters, and the residues were extensively washed further with binding buffer. The bound ligand fraction was determined from the counts per minute (cpm) remaining on the membrane. Binding kinetics values were determined as previously described.

Cysteine accessibility at Val116 compared to ligand (-) [1] | Cysteine accessibility at Ser109 compared to ligand (-) [2] | Cysteine accessibility at Ser109 compared to ligand (-) ([2]; listed as olmesartan) | Kd ratio relative to WT (in parentheses) ([4]; WT / WT) [fold] | Kd [4] [nM] | Kd ratio relative to olmesartan (in parentheses) [4] [fold] | Compound | Pharmacological behaviour toward IP production [3]
No change | Less | less accessibility | 1.0 | 2.3 ± 0.8 | 1.0 | CCCc1nc(C(C)(C)O)c(C(=O)O)n1Cc1ccc(-c2ccccc2-c2nnn[nH]2)cc1 [Olmesartan, olmesartan, reference compound] | inverse agonism
– | – | – | – | 48 ± 12 | – | CCCc1nc(C(C)(C)O)c(C(N)=O)n1Cc1ccc(-c2cc(Cc3ccc(O)cc3)ccc2-c2nnn[nH]2)cc1 [R794847] | –
No change | No change | – | – | 0.8 ± 0.3 | 0.3 | CCCc1nc(C(C)(C)O)c(C(N)=O)n1Cc1ccc(-c2ccccc2-c2nnn[nH]2)cc1 [R239470] | neutral antagonist
